Data reported in publication PMC8956665, “Structural and molecular rationale for the diversification of resistance mediated by the Antibiotic_NAT family” (Communications Biology, 2022).
Like-named read-outs stand apart in the source and are kept apart here.

How the values were obtained:
meta-AAC0038 [1] = conditions: ternary complex with CoA; 10 mM apramycin, 20% PEG 3350, 50 mM ADA pH 7; catalytically inactive mutant; active site cleft
meta-AAC0038 [2] = conditions: binary complex; catalytically inactive mutant
AAC(3)-IVa [3] = target: AAC(3)-IVa
AAC(3)-IVa [4] = assay: crystal structure

Sequence of meta-AAC0038 (A0A059X981 entry or part of it H168A): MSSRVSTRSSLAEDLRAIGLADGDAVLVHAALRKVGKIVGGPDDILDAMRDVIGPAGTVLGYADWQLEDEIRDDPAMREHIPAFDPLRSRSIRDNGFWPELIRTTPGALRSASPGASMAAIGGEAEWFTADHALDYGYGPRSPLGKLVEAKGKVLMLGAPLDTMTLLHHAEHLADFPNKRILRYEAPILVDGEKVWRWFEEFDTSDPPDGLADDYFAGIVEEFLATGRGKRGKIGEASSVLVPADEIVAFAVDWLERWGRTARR

`CN[C@@H]1[C@@H](O[C@H]2O[C@H](CO)[C@@H](N)[C@H](O)[C@H]2O)O[C@H]2C[C@@H](N)[C@@H](O[C@H]3[C@H](O)[C@@H](O)[C@H](N)C[C@@H]3N)O[C@@H]2[C@@H]1O` [APR, apramycin] was tested, and the “X-ray crystal structure, co-crystallization” value (meta-AAC0038 [1]) was “crystal structures of the ternary meta-AAC0038^H168A•apramycin•CoA”.

In the case of `CC(=O)SCCNC(=O)CCNC(=O)[C@H](O)C(C)(C)COP(=O)(O)OP(=O)(O)OC[C@H]1O[C@@H](n2cnc3c(N)ncnc32)[C@H](O)[C@@H]1OP(=O)(O)O` [AcCoA, acetyl-CoA], the X-ray crystal structure (meta-AAC0038 [2]) is reported as “the binary meta-AAC0038^H168A•acetyl-CoA complexes”.

Compound AAC(3)-IVa (enzyme) has a stoichiometry N (AAC(3)-IVa [3]) of 2 and a stoichiometry N (AAC(3)-IVa [4]) of 2.
